In ChEMBL document CHEMBL1149687, “Development of oligoarginine-drug conjugates linked to new peptidic self-cleavable spacers toward effective intestinal absorption” (Bioorg Med Chem Lett, 2007):

The compounds below were run on Caco-2 (assay: Apparent permeability across Caco-2 cells). Conditions: Homo sapiens.
Format: functional, cell-based
For CC(N)[C@@H](NC(=O)CCC(=O)OCCNC(=S)Nc1ccc(-c2c3ccc(=O)cc-3oc3cc(O)ccc23)c(C(=O)O)c1)C(=O)NCCCC(=O)N[C@H](CCCNC(=N)N)C(=O)N[C@H](CCCNC(=N)N)C(=O)N[C@H](CCCNC(=N)N)C(=O)N[C@H](CCCNC(=N)N)C(=O)N[C@H](CCCNC(=N)N)C(=O)N[C@H](CCCNC(=N)N)C(=O)N[C@H](CCCNC(=N)N)C(N)=O (some centres undefined), the Papp was 0.48 ×10⁻⁶ cm/s. O=C(O)c1cc(NC(=S)NCCO)ccc1-c1c2ccc(=O)cc-2oc2cc(O)ccc12 was tested, and the Papp was 0.26 ×10⁻⁶ cm/s. Compound N=C(N)NCCC[C@@H](NC(=O)[C@@H](CCCNC(=N)N)NC(=O)[C@@H](CCCNC(=N)N)NC(=O)[C@@H](CCCNC(=N)N)NC(=O)[C@@H](CCCNC(=N)N)NC(=O)[C@@H](CCCNC(=N)N)NC(=O)[C@@H](CCCNC(=N)N)NC(=O)CCCNC(=O)[C@@H](CN)NC(=O)CCC(=O)OCCNC(=S)Nc1ccc(-c2c3ccc(=O)cc-3oc3cc(O)ccc23)c(C(=O)O)c1)C(N)=O has a Papp of 0.75 ×10⁻⁶ cm/s. Compound C[C@@H](NC(=O)CCC(=O)OCCNC(=S)Nc1ccc(-c2c3ccc(=O)cc-3oc3cc(O)ccc23)c(C(=O)O)c1)C(=O)NCCCC(=O)N[C@H](CCCNC(=N)N)C(=O)N[C@H](CCCNC(=N)N)C(=O)N[C@H](CCCNC(=N)N)C(=O)N[C@H](CCCNC(=N)N)C(=O)N[C@H](CCCNC(=N)N)C(=O)N[C@H](CCCNC(=N)N)C(=O)N[C@H](CCCNC(=N)N)C(N)=O has a Papp of 0.41 ×10⁻⁶ cm/s.
